From patent US20170258781A1, “ATRIAL SPECIFIC ANTIARRHYTHMICS FOR USE IN TREATING OR PREVENTING ATRIAL FIBRILLATION” (Tufts Medical Center, Inc., priority 2014, published 2017)

Experiments:
[1] = biological target: T1, IKACh (Kir3.1 and Kir3.4 protein channels) (Homo sapiens, UniProt P48544+P48549); assay: Patch clamp block of IKACh current in transfected HEK 293 cells; format: cell-based; conditions: for percentage block of IKACh current (outward component): 1 μM drug, HEK 293 cells transfected with Kir3.1/Kir3.4, barium sensitive current, 5 minute superfusion; for percentage block of IKACh current (FIG. 5, Compound A experiments): same manner and cell lines, concentration not given
T1 construct: expressed in transfected cells; host or cells: HEK 293 (human embryonic kidney cells)
T1 sequence (P48549 1-501): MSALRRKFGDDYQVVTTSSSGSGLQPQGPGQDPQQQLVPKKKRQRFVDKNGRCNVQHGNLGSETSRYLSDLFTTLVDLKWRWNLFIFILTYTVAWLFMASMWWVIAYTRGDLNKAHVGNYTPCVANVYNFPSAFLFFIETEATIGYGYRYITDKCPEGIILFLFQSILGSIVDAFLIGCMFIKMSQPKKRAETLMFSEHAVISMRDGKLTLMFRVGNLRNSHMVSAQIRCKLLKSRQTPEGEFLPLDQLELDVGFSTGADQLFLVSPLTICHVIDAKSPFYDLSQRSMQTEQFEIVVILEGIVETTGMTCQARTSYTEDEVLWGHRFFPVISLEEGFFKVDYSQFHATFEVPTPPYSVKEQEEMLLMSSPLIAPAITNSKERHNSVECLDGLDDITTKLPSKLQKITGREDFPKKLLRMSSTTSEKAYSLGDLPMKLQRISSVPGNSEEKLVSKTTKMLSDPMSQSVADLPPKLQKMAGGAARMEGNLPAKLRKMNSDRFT
T1 sequence (P48544 1-419): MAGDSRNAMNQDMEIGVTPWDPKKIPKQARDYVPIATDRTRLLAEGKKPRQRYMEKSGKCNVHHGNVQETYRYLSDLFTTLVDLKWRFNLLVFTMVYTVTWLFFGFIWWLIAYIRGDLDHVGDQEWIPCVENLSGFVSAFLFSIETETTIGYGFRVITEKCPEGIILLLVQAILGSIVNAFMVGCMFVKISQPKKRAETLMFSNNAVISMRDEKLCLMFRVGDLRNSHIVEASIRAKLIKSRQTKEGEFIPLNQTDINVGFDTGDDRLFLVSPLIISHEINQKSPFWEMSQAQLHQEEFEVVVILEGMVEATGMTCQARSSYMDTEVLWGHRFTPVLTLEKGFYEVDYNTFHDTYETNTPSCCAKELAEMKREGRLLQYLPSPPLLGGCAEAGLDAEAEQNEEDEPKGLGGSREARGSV
Description: FIG. 1: In patch clamp experiments, IKACh was measured in human embryonic kidney cells (HEK 293) transfected with IKACh.
The boxed area is the physiologically important outward component of the IKACh current. A magnification is shown. […] The traces are the barium sensitive currents.

[2] = biological target: IKr (hERG protein channel) (Homo sapiens, UniProt Q12809); conditions: 5 min
Sequence of IKr (hERG protein channel) (Q12809 whole entry): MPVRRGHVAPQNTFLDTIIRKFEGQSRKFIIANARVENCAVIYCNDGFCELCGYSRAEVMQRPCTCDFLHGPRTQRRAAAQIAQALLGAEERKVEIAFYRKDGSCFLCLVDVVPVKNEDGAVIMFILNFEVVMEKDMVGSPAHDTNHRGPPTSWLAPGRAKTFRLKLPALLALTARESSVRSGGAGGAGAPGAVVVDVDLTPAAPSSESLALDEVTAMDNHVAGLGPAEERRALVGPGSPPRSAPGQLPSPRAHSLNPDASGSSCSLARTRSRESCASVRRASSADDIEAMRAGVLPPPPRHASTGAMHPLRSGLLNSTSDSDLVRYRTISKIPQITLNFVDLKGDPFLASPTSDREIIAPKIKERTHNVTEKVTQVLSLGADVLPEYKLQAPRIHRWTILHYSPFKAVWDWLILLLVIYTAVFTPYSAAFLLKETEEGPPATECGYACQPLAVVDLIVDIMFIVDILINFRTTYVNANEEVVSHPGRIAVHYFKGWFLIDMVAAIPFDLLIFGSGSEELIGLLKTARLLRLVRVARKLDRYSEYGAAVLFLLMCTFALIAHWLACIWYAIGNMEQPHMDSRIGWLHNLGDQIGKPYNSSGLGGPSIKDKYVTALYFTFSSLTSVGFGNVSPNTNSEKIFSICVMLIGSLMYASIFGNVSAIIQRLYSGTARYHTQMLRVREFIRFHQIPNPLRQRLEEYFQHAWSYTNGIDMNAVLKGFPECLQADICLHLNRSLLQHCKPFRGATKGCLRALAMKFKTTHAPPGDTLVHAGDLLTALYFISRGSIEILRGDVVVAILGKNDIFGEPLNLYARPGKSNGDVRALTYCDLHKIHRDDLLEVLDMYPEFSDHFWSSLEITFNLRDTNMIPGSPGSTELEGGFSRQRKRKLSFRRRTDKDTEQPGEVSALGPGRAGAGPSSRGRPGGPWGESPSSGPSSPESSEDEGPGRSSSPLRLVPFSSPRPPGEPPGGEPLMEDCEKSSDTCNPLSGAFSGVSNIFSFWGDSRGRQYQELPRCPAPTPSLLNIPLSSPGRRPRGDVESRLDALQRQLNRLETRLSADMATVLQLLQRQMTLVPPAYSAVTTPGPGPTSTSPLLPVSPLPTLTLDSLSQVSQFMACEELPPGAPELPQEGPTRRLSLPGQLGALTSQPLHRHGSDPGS
Description: FIG. 2: IKr current was measured in Chinese hamster ovary cells (CHO) expressing the current.
The arrow denotes the tail current. Tail current is elicited by 3 second step voltage drop from +20 mV to −40 mV. The gray trace is the remaining current after total current block with E4031.
We used the conventional patch clamp method and human embryonic kidney cells transfected with Kir3.1 and Kir3.4 protein channels responsible for IKACh, or Chinese hamster ovary cells transfected with the hERG protein channel responsible for IKr. […] In order to elicit IKACh, the cells were subjected to a voltage protocol consisting of a 2 second ramp from −130 mV to 50 mV, from a holding potential of −40 mV. IKr tail current was elicited by a 3 second voltage drop step from 20 mV to −40 mV. The drugs were superfused over a 5 minute period into the chambers that hold the cells.

[3] = Compound A vs racemic chloroquine

Compound	percentage block of IKACh current (outward component) [1]	percentage block of IKACh current (FIG. 5, Compound A experiments) [1, 3]	further results
CCN(CC)CCC[C@@H](C)Nc1ccnc2cc(Cl)ccc12 [(R)-chloroquine, reference compound]	less than 13%	–	percentage block of IKACh current (outward component) ([1]; listed as distomer (R)): 14%±9
CCN(CC)CCC[C@H](C)Nc1ccnc2cc(Cl)ccc12 [(S)-chloroquine]	more than 83%	–	percentage block of IKACh current (outward component) ([1]; listed as eutomer (S)): 83%±2
CCN(CC)CCC[C@H](Cc1ccccc1)Nc1ccnc2cc(Cl)ccc12 [Compound A]	–	110%±2.5	IKACh block relative to chloroquine, in words [1, 3]: significantly better blocker of IKACh; percentage block of IKr current (FIG. 5, Compound A experiments) [2]: 75%±5.7
chloroquine [racemic chloroquine, reference compound]	–	52%±11	–
